This is an account of results in US20230355586A1, “Application of Valdecoxib in preparation of medications for preventing and treating glaucoma” (Central South University, priority 2022, published 2023).

Entries after “also recorded” stand apart in the source; their conditions may differ.

Data set [1] deals with PERK-ATF4-CHOP pathway. As to the kind of experiment: Western blot of ER stress, PERK-ATF4-CHOP pathway and apoptosis proteins in R28 OGD/R model. Type of data set: cell-based, rat. To be noted: R28 cells. (In general: In western blotting, separated proteins are transferred to a membrane and probed.)
Data set [2] concerns R28 cells. As to the kind of experiment: Cell death of R28 cells pretreated with CCT020312. To be noted: R28 cells pretreated with different concentrations of CCT020312. Type of data set: cell-based, rat.
The test system of data set [3] is R28 cells. As to the kind of experiment: CCK-8 cell viability in R28 OGD/R model. The data set is classed as cell-based, rat. To be noted: 2 h post-OGD/R, vs. OGD/R group. The protocol:
(§1) Through animal ethics, cell culture, animal selection, reagent and antibody information, anterior chamber compression rat model is established, […] cell OGD/R (oxygen-glucose deprivation/reoxygenation) model is established; HE (hematoxylin-eosin) staining, apoptosis by TUNEL (TdT-mediated dUTP Nick-End Labeling) detection, cell viability by CCK8 (Cell Counting Kit-8), Western blot assay, Annexin V-FITC/PI flow cytometry, PI/Hoechest staining and immunofluorescence assay are performed. The cell death rate at multiple time points with the OGD/R model is detected using PI staining. PI-positive cells are identified as dead cells. The proportion of PI-positive cells at multiple time points are calculated. […] To identify whether the valdecoxib's effect involved an anti-apoptosis mechanism, FCM (flow cytometry) is performed, and a further analysis indicates both that OGD/R induced cell apoptosis and the valdecoxib decreases the cell apoptosis rate, as shown in FIGS. 1E-1H.

Data set [4] has as its system retina / RGCs (retinal ganglion cells). The experiment in a line: HE staining of retina in acute high intraocular pressure (aHIOP) retinal I/R model. Type of data set: in vivo, SD (Sprague-Dawley) rats. To be noted: rat I/R model, 3 days post-injury, intravitreal injection. The protocol:
(§2) Through animal ethics, cell culture, animal selection, reagent and antibody information, anterior chamber compression rat model is established, R28 cell OGD/R (oxygen-glucose deprivation/reoxygenation) model is established; HE (hematoxylin-eosin) staining, apoptosis by TUNEL (TdT-mediated dUTP Nick-End Labeling) detection, cell viability by CCK8 (Cell Counting Kit-8), Western blot assay, Annexin V-FITC/PI flow cytometry, PI/Hoechest staining and immunofluorescence assay are performed.
(§3) In order to evaluate the potential therapeutic prospect of VAL for saving RGCs (retinal ganglion cells) in glaucoma retinal injury, the glaucoma retinal IR is simulated by performing an aHIOP (acute high intraocular pressure) model on SD (Sprague-Dawley) rats. The rats are sacrificed and their eyeballs are removed at 1, 3 or 7 days post-IRI. HE staining is performed to detect the morphological changes in the retina. It is discovered that, compared to the control group, the retinas from 3 and 7 days post-IRI are markedly thinner. Additionally, lost RCGs or their disordered arrangement is observed at 3 and 7 days after IRI when compared with the control retina, as shown in FIGS. 2A and 2B. Next, the valdecoxib's effect on the RGCs in the FR model by HE staining and immunofluorescence. […] A TUNEL assay is performed to clarify whether valdecoxib's protective effect involves the anti-apoptosis mechanism. […]

The test system of data set [5] is R28 cells. As to the kind of experiment: Annexin V-FITC/PI flow cytometry apoptosis in R28 OGD/R model. To be noted: vs. OGD/R group. Type of data set: cell-based, rat. The protocol:
as §1
(In flow cytometry, cells or beads pass a laser one at a time.)

Data set [6] relates to PERK-ATF4-CHOP pathway. As to the kind of experiment: Western blot of retina lysates in retinal I/R model. Type of data set: in vivo, rats. To be noted: rat retina. The protocol: as §2, with “R28” left out, “performed. […] The expression levels of the apoptosis-related proteins are examined in the control, I/R, I/R+DMSO and I/R+valdecoxib groups. […] The expression levels of p-PERK, cleaved caspase 3 and GRP78 in RGCs are evaluated by immunofluorescence.” for “performed.”

Data set [7] deals with RGCs (retinal ganglion cells). The experiment in a line: TUNEL/RBPMS apoptosis assay of retina in aHIOP retinal I/R model. To be noted: rat I/R model, compared to the I/R group. The data set is classed as in vivo, SD (Sprague-Dawley) rats. How it is done:
as §2, §3

The mark [8] stands for this setting: I/R, pretreated with valdecoxib.

On to `CCN(CC)CCC(=O)N1N=C(c2c(-c3ccccc3)c3cc(Br)ccc3[nH]c2=O)CC1c1ccc(Br)cc1` (centres unmarked) [CCT020312], for which, in data set [1] (CCT020312 pre-treated group), the “bax expression level (Western blot)” value was “consistent with those of the PERK-ATF4-CHOP pathway proteins” and the “cleaved caspase 3 expression level (Western blot)” value is “consistent with those of the PERK-ATF4-CHOP pathway proteins”. Also, in data set [1] (valdecoxib pretreatment prior to CCT020312, vs. OGD/R+VAL), the “expression of markers of ER stress and the PERK-ATF4-CHOP pathway (Western blot)” value is on record as “reverses the valdecoxib's effects, increasing the expression”. Also, the cell death result in data set [2] is given as “no significant cell death”.

As to `Cc1onc(-c2ccccc2)c1-c1ccc(S(N)(=O)=O)cc1` [valdecoxib], in data set [1] (valdecoxib pretreatment), the “ATF4 protein level (Western blot)” value is on record as “decrease the expression; also recorded: significantly reduces”, the “CHOP protein level (Western blot)” value was “decrease the expression; also recorded: significantly reduces”, the “GRP78 protein level (Western blot)” value is reported as “decrease the expression; also recorded: significantly reduces” and the “bax protein level (Western blot)” value was “decreased; also recorded: significantly reduces”. In data set [1] (valdecoxib pretreatment), the “bcl-2 protein expression (Western blot)” value is “opposite to that of the bax and cleaved caspase 3”; the “cleaved caspase 3 protein level (Western blot)” value was “decreased; also recorded: significantly reduces”; the “p-PERK protein level (Western blot)” value is “decrease the expression; also recorded: significantly reduces”. In addition, in data set [3] (1 μmol/L), the “cell survival rate (CCK-8)” value was “significantly elevates”. Besides, in data set [3] (1 μmol/L, listed as VAL), the “cell survival rate (CCK-8)” value is listed as “significant increase”. In addition, the “cell survival rate (CCK-8)” value in data set [3] (5 μmol/L) is recorded as “significantly elevates”. Besides, the “cell survival rate (CCK-8)” value in data set [3] (5 μmol/L, listed as VAL) is “significant increase”. Further, in data set [4], the “RGCs' survival rate” value was “significantly increases” and the “retinal thickness (HE staining)” value is “significantly increases”. In addition, the “cell apoptosis rate (flow cytometry)” value in data set [5] was “decreases”. In data set [6] (I/R injury), the “bax expression (Western blot)” value is listed as “decreases the expression”; the “bcl-2 expression (Western blot)” value was “opposite of that of the bax and cleaved caspase 3”; the “cleaved caspase 3 expression (Western blot)” value was “decreases the expression”. For the same molecule, in data set [6] (setting [8]), the “ATF4 expression level (Western blot)” value is on record as “reduced”, the “CHOP expression level (Western blot)” value is “reduced”, the “GRP78 expression (Western blot)” value is “consistent with the PERK-ATF4-CHOP pathway proteins” and the “p-PERK expression level (Western blot)” value is “reduced”. For the same molecule, the “TUNEL-positive RGCs” value in data set [7] is “reduced”.
